From ChEMBL document CHEMBL3632576, “Tacrine-Trolox Hybrids: A Novel Class of Centrally Active, Nonhepatotoxic Multi-Target-Directed Ligands Exerting Anticholinesterase and Antioxidant Activities with Low In Vivo Toxicity” (J Med Chem, 2015) come the findings set out here.

Data set [1] deals with Cholinesterase (Homo sapiens, UniProt P06276).
Description: Inhibition of human plasmatic BChE using butyrylthiocholine as substrate preincubated for 5 mins followed by substrate addition measured every 2 mins by Ellman's method
Data set [2] can be described thus: in vitro. Conditions: human, HepG2 cells.
Description: Hepatotoxicity in human HepG2 cells assessed as cell viability after 24 hrs by MTT assay
Data set [3] concerns the target T1, Acetylcholinesterase (Homo sapiens, UniProt P22303).
Description: Inhibition of human recombinant AChE using acetylthiocholine as substrate preincubated for 5 mins followed by substrate addition measured every 2 mins by Ellman's method
In data set [4] the test system is Liver microsome. The experiment in a line: Retention time of the compound in human liver microsomes by LC-MS/MS analysis. The data set is classed as ADME. On the technique in general: Microsomes from liver hold many membrane-bound enzymes, among them those of drug oxidation.
Data set [5] relates to HepG2. In words: Hepatotoxicity in human HepG2 cells assessed as cell viability at 2 uM after 24 hrs by MTT assay. The data set is classed as toxicity, cell-based. The conditions noted are these: hepg2, 24 h. (Tetrazolium assays rely on reduction of a dye to a coloured formazan, in cell work by metabolically active cells.)
The subject of data set [6] is HepG2. In words: Hepatotoxicity in human HepG2 cells assessed as cell viability at 0.5 uM after 24 hrs by MTT assay. Conditions: hepg2, 24 h. The data set is classed as toxicity, cell-based.
A short description of data set [7]: Metabolic stability in human liver microsomes assessed as compound remaining at 1 ug/ml after 1 hr by LC-MS/MS analysis. The data set is classed as ADME. Conditions: read-out: Stability.
For data set [8], the system named is Liver microsome. In words: Drug metabolism in human liver microsomes assessed as decrease in 8-(6-chloro-1,2,3,4-tetrahydroacridin-9-ylamino)octanoic acid AUC after 1 hr by extracted ion chromatogram analysis. The data set is classed as ADME.
A short description of data set [9]: Metabolic stability in human liver microsomes assessed as compound remaining at 50 ug/ml after 1 hr by LC-MS/MS analysis. The data set is classed as ADME. The conditions noted are these: read-out: Stability.
Data set [10] has as its target T1, Acetylcholinesterase. The experiment in a line: Competitive inhibition of human recombinant AChE using acetylthiocholine as substrate preincubated for 5 mins followed by substrate addition measured every 2 mins by Lineweaver-Burk plot analysis.
Data set [11] is described as follows: Metabolic stability in human liver microsomes assessed as compound remaining at 20 ug/ml after 1 hr by LC-MS/MS analysis. The data set is classed as ADME. The conditions noted are these: read-out: Stability.
Data set [12] in a line: Acute toxicity in im dosed albino Wistar rat assessed as mortality measured within 48 hrs. The data set is classed as organism-based. The conditions noted are these: in vivo.
Data set [13] has as its target T1, Acetylcholinesterase. Conditions: 100 to 562 nM.
A short description of data set [14]: Permeability of the compound at 50 to 100 uM after 18 hrs by PAMPA. The data set is classed as physicochemical. The conditions noted are these: read-out: permeability.
For data set [15], the system named is HepG2. The experiment in a line: Hepatotoxicity in human HepG2 cells assessed as cell viability at 512 uM after 24 hrs by MTT assay. The data set is classed as toxicity, cell-based. The conditions noted are these: hepg2, 24 h.

One may read the IC50 as the point on the concentration scale where inhibition reaches its midpoint. Read a high IC50 as a need for much substance. As usually defined, the EC50 is the concentration giving half of the maximal effect. One may read the Ki as a measure of affinity in units of concentration, obtained from inhibition or displacement. For orientation: LD50 means the dose at which mortality reaches 50%.

Calls of active or inactive are those of the source. The rule behind the calls is not given here. Some results are limits rather than exact numbers.

Chain of Cholinesterase (P06276 whole entry): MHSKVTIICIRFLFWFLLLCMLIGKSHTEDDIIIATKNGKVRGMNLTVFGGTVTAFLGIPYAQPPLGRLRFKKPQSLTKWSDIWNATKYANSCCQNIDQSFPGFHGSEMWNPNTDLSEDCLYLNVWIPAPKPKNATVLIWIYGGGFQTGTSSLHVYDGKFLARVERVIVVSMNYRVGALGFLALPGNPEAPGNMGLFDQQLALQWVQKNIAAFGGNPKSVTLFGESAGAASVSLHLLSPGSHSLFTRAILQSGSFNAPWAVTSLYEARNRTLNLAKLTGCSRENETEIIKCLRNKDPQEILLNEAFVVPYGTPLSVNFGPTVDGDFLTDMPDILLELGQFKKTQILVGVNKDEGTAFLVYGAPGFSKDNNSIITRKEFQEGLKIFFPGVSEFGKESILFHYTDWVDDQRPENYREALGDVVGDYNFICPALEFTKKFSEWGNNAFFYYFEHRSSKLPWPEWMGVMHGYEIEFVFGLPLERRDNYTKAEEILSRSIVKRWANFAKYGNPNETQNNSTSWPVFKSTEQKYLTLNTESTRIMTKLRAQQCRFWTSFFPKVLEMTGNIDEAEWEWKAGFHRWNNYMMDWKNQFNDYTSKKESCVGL
T1 sequence (P22303 whole entry): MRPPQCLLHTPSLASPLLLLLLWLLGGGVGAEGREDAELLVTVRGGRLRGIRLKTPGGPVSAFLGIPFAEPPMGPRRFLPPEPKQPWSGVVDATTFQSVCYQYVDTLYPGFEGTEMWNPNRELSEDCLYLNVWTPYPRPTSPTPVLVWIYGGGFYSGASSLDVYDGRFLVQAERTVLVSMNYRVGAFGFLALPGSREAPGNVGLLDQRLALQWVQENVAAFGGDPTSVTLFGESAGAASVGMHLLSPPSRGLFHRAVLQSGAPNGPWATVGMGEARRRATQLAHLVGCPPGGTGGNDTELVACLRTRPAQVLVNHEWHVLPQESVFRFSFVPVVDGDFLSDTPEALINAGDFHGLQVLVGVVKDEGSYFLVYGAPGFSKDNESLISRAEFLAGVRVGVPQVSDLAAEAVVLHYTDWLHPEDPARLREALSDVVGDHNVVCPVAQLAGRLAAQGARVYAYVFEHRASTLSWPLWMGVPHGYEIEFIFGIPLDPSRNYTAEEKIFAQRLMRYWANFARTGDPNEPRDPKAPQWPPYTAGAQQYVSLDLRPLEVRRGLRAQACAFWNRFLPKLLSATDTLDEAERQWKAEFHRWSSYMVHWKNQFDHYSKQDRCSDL

In turn, `Cc1c(C)c2c(c(C)c1O)CCC(C)(C(=O)NCCCCCCNc1c3c(nc4ccccc14)CCCC3)O2` (stereo not given) registered an EC50 of 61.8 µM. Moreover, in data set [1], the IC50 amounted to 0.19 µM. The molecule further displayed an IC50 at 24 h in [2] of 2 µM. Also, the IC50 in data set [3] is 360 nM.
As for `Cc1c(C)c2c(c(C)c1O)CCC(C)(C(=O)NCCCCCCCCNc1c3c(nc4ccccc14)CCCC3)O2` (stereo not given), the EC50 is 66.5 µM. The molecule further registered an IC50 in data set [1] of 0.16 µM. Further, the IC50 in [3] was 690 nM.
In data set [4], `OCCCCCCCCNc1c2c(nc3cc(Cl)ccc13)CCCC2` gave a Retention_time of 6.56 min.
`COc1ccc2nc3c(c(NCCCCNC(=O)C4(C)CCc5c(C)c(O)c(C)c(C)c5O4)c2c1)CCCC3` (stereo not given): the EC50 is greater than 100 µM. Further, in data set [1], it took 0.29 µM to reach half-maximal inhibition (IC50). The molecule also displayed an IC50 in [3] of 7210 nM.
For the molecule `Cc1c(C)c2c(c(C)c1O)CCC(C)(C(=O)NCCCNc1c3c(nc4cc(Cl)ccc14)CCCC3)O2` (stereo not given), the EC50 was found to be 48.8 µM. In [1], this molecule yielded an IC50 of 0.77 µM. This molecule returned an IC50 in data set [3] of 80 nM.
With `CC1=C(C)C(=O)C(CCC(C)(O)C(=O)NC(O)CCCCCCCNc2c3c(nc4cc(Cl)ccc24)CCCC3)=C(C)C1=O` (stereo not given), the Retention_time in [4] worked out at 7.1 min.
On the same count and under the same terms, with `O=C(O)CCCCCCCNc1c2c(nc3cc(Cl)ccc13)CCCC2` the figure was 6.52 min.
The molecule `COc1ccc2nc3c(c(NCCCNC(=O)C4(C)CCc5c(C)c(O)c(C)c(C)c5O4)c2c1)CCCC3` (stereo not given) showed an EC50 greater than 100 µM. Also, in [5], the Activity result is “Non-toxic”. The same molecule yielded an IC50 in data set [1] of 0.62 µM. Half-maximal inhibition in data set [3] (IC50) required 1540 nM.
As to `Cc1c(C)c2c(c(C)c1O)CCC(C)(C(=O)NCCCNc1c3c(nc4ccccc14)CCCC3)O2` (stereo not given), the EC50 worked out at 51.3 µM. This molecule had an IC50 in data set [1] of 0.08 µM. Also, the IC50 at 24 h in data set [2] is 13.2 µM. In data set [3], this molecule registered an IC50 of 260 nM.
Regarding `Cc1c(C)c2c(c(C)c1O)CCC(C)(C(=O)NCCCCCNc1c3c(nc4cc(Cl)ccc14)CCCC3)O2` (stereo not given), the EC50 stood at 49.8 µM. For the same molecule, the IC50 in data set [1] turned out to be 0.13 µM. In data set [3], this molecule came in with an IC50 of 120 nM.
Regarding `Cc1c(C)c2c(c(C)c1O)CCC(C)(C(=O)NCCCCCCCCNc1c3c(nc4cc(Cl)ccc14)CCCC3)O2` (stereo not given), the EC50 stood at 44.1 µM. In [6], the Activity entry is recorded as “Non-toxic”. Also, the remaining at 1 h, 1 ug/ml in data set [7] is 58.2%. Besides, the IC50 in data set [1] was 0.54 µM. Also, the Drug metabolism in data set [8] is reported as 3.1%. The molecule also came in with a Retention_time in data set [4] of 7.52 min. Moreover, in data set [9], the remaining at 1 h, 50 ug/ml came out at 85.4%. For the same molecule, the Ki in [10] was found to be 49.5 nM. Besides, in data set [11], the remaining at 1 h, 20 ug/ml was 85.5%. Besides, the LD50 at 48 h in data set [12] was greater than 500 mg/kg. This molecule also had an IC50 in data set [3] of 80 nM. In addition, in data set [13], the inhibition result is “Active”. The Papp at 18 h, 100 µM in [14] was found to be 5 ×10⁻⁶ cm/s.
Molecule `COc1ccc2nc3c(c(NCCCCCCNC(=O)C4(C)CCc5c(C)c(O)c(C)c(C)c5O4)c2c1)CCCC3` (stereo not given) yielded an EC50 of 58.8 µM. The 50% inhibitory concentration (IC50) in [1] was 0.69 µM. Also, in [3], inhibition was half-maximal at 6610 nM (IC50).
Take `Cc1c(C)c2c(c(C)c1O)CCC(C)(C(=O)NCCCCCCNc1c3c(nc4cc(Cl)ccc14)CCCC3)O2` (stereo not given): the concentration for a half-maximal effect (EC50) turned out to be 48.8 µM. For the same molecule, the IC50 in data set [1] was 0.4 µM. In data set [2], this molecule gave an IC50 at 24 h of 0.7 µM. This molecule also gave an IC50 in data set [3] of 100 nM.
As to `Cc1c(C)c2c(c(C)c1O)CCC(C)(C(=O)O)O2` (stereo not given) [TROLOX], the response was half-maximal at 16.2 µM (EC50). Also, the Activity result in data set [15] is reported as “Non-toxic”. Besides, in data set [1], the IC50 was greater than 1000 µM. The same molecule came in with an IC50 in data set [3] of 186000 nM.
`Cc1c(C)c2c(c(C)c1O)CCC(C)(C(=O)NCCCCNc1c3c(nc4cc(Cl)ccc14)CCCC3)O2` (stereo not given) came in with an EC50 of 50.8 µM. Further, the IC50 in [1] was 0.09 µM. Moreover, in [3], the IC50 was 150 nM.
Molecule `COc1ccc2nc3c(c(NCCCCCNC(=O)C4(C)CCc5c(C)c(O)c(C)c(C)c5O4)c2c1)CCCC3` (stereo not given) yielded an EC50 of 62.7 µM. In [1], this molecule had an IC50 of 0.4 µM. In data set [3], this molecule came in with an IC50 of 13300 nM.
With `Cc1c(C)c2c(c(C)c1O)CCC(C)(C(=O)NCCCCCCCNc1c3c(nc4ccccc14)CCCC3)O2` (stereo not given), the EC50 is greater than 100 µM. This molecule yielded an IC50 in data set [1] of 0.13 µM. In data set [3], this molecule returned an IC50 of 690 nM.
Regarding `Cc1c(C)c2c(c(C)c1O)CCC(C)(C(=O)NCCNc1c3c(nc4ccccc14)CCCC3)O2` (stereo not given), the EC50 is greater than 100 µM. Besides, in data set [1], the IC50 is 0.06 µM. Moreover, in [3], the IC50 turned out to be 6970 nM. Also, in data set [14], the Papp at 18 h, 100 µM came out at 4.4 ×10⁻⁶ cm/s.
In turn, `Cc1c(C)c2c(c(C)c1O)CCC(C)(C(=O)NCCCCNc1c3c(nc4ccccc14)CCCC3)O2` (stereo not given) showed an EC50 greater than 100 µM. In addition, the IC50 in data set [1] stood at 0.08 µM. In data set [3], this molecule gave an IC50 of 950 nM.
Regarding `COc1ccc2nc3c(c(NCCCCCCCCNC(=O)C4(C)CCc5c(C)c(O)c(C)c(C)c5O4)c2c1)CCCC3` (stereo not given), the EC50 was greater than 100 µM. Moreover, the IC50 in data set [1] stood at 1.53 µM. Further, the IC50 at 24 h in [2] is 0.92 µM. This molecule also yielded an IC50 in data set [3] of 3480 nM.
Molecule `Nc1c2c(nc3cc(Cl)ccc13)CCCC2` returned an EC50 greater than 100 µM. In data set [2], the 50% inhibitory concentration (IC50) at 24 h turned out to be 7.13 µM. For the same molecule, the LD50 at 48 h in [12] turned out to be 7.5 mg/kg.
Regarding `COc1ccc2nc3c(c(N)c2c1)CCCC3`, the EC50 was greater than 100 µM. This molecule also registered an IC50 at 24 h in data set [2] of 11.5 µM.
In turn, `Cc1c(C)c2c(c(C)c1O)CCC(C)(C(=O)NCCCCCNc1c3c(nc4ccccc14)CCCC3)O2` (stereo not given) showed an EC50 of 65.6 µM. This molecule displayed an IC50 in [1] of 0.56 µM. Besides, in [2], the IC50 at 24 h stood at 8.7 µM. Also, 620 nM corresponded to half-maximal inhibition in data set [3] (IC50).
Take `CC1=C(C)C(=O)C(CCC(C)(O)C(=O)NCCCCCCCCNc2c3c(nc4cc(Cl)ccc24)CCCC3)=C(C)C1=O` (stereo not given): in [4], the Retention_time worked out at 7.35 min.
`COc1ccc2nc3c(c(NCCNC(=O)C4(C)CCc5c(C)c(O)c(C)c(C)c5O4)c2c1)CCCC3` (stereo not given) came in with an EC50 of 95.9 µM. Moreover, the IC50 in data set [1] stood at 1.3 µM. The molecule also came in with an IC50 at 24 h in data set [2] of 4.9 µM. The molecule further yielded an IC50 in data set [3] of 4360 nM.
`COc1ccc2nc3c(c(NCCCCCCCNC(=O)C4(C)CCc5c(C)c(O)c(C)c(C)c5O4)c2c1)CCCC3` (stereo not given) registered an EC50 of 59 µM. For the same molecule, the IC50 in [1] was determined as 0.7 µM. This molecule also had an IC50 in data set [3] of 6720 nM.
Molecule `Cc1c(C)c2c(c(C)c1O)CCC(C)(C(=O)NCCCCCCCNc1c3c(nc4cc(Cl)ccc14)CCCC3)O2` (stereo not given) came in with an EC50 of 44.2 µM. For the same molecule, in data set [6], the Activity result was “Non-toxic”. In data set [1], the IC50 came to 0.7 µM. Further, in data set [3], the IC50 was 80 nM.
With `Cc1c(C)c2c(c(C)c1O)CCC(C)(C(=O)NCCNc1c3c(nc4cc(Cl)ccc14)CCCC3)O2` (stereo not given), the EC50 is 67.8 µM. The same molecule gave an IC50 in data set [1] of 0.02 µM. In data set [3], this molecule returned an IC50 of 210 nM.
